Like-named read-outs stand apart in the source and are kept apart here.
How the values were obtained:
Karpas299 = experiment: Cell proliferation assay (MTS / BrdU), Karpas299; type: cell-based; settings: Homo sapiens, KARPAS-299; 72 hours, 2% FBS
Description: (§1) Karpas299 and SU-DHL-1 cells were purchased from Deutsche Sammlung von Mikroorganismen and Zellkulturen (Germany). H2228 was purchased from American Type Culture Collection (USA). All cells were cultured in the recommended medium and serum concentration. Cells were maintained at 37° C. in a humidified atmosphere with 5% CO2. For ALK kinase phosphorylation, cells were seeded in 96-well plates overnight in medium supplemented with 10% fetal bovine serum […]. After 24 hours, the medium was removed and cells were cultured in serum-free medium at 37° C. in the presence of various concentrations of the test articles for 1 hour. After incubation with the tested articles, cells were washed once with HBSS supplemented with 1 mM Na3VO4 and protein lysates were generated. Subsequently, phosphorylation of ALK was assessed by a sandwich ELISA method using an immobilized anti-total-ALK antibody and an anti-phospho-ALK antibody (pY1604) as a detection antibody. IC50 value was calculated using median-effect method. (Chou 2006).
(§2) For cell proliferation assay, cells were seeded in 96-well pates at low density at 37° C. in medium supplemented with 10% FBS and after 24 hours were switched to low serum medium (2% FBS). Cells were further incubated in the presence of the test articles at various concentrations at 37° C. for 72 hours. Two assays were employed to determine the relative cell numbers. One is a 3-(4,5-dimethylthiazol-2-yl)-5-(3-carboxymethoxyphenyl)-2-(4-sulfophenyl)-2H-tetrazolium (MTS) assay using a CellTiter 96® Aqueous Non-Radioactive Cell Proliferation kit (Promega), and the other is a BrdU incorporation assay using a DELFIA® Cell Proliferation Kit (Perkin Elmer). IC50 value was calculated using median-effect method (Chou 2006).

NPM1-ALK = molecular target: T1, NPM1-ALK (Homo sapiens, UniProt Q9UM73); experiment: Off-chip mobility shift assay (Carna Biosciences), NPM1-ALK; type: biochemical
T1 construct: purchased Carna Biosciences (Chuo-ku, Kobe, Japan); the other entry of the earlier key: NPM1 (P06748, Nucleophosmin)
Description: (§3) The activities of ALK wild type, its mutant F1174L, R1275Q, L1196M and EML4-ALK, NPM1-ALK were also determined using off-chip mobility shift assay at Carna Biosciences (Chuo-ku, Kobe, Japan). In brief, 5 μL of ×4 compound solution, 5 μL of ×4 substrate/ATP/metal solution and 10 μL of ×2 kinase solution were prepared with assay buffer (20 mM HEPES, 0.01% Triton X-100, 2 mM DTT, pH 7.5) and mixed and incubated in a well of polypropylene 384 well microplate for 1 or 5 hours (depending on the enzyme). The ATP concentration used in the reaction was 50 μM for ALK wild type, F1174L mutant, EML4-ALK and NPM1-ALK, and 100 μM for R1275Q and 72 μM for L1196M. An aliquot of 60 μL of termination buffer (QuickScout Screening Assist MSA, Carna Biosciences) was added to each well to terminate the reactions. The reaction mixture was applied to LabChip3000 system (Caliper Life Science), and the product and substrate peptide peaks were separated and quantitated. The kinase reaction was evaluated by the product ratio calculated from peak heights of product (P) and substrate (S) peptides (P/(P+S)). IC50 value was calculated from concentration vs. % Inhibition curves by fitting to a four parameter logistic curve.

ALK mutant L1196M = molecular target: T2, ALK mutant L1196M (Homo sapiens, UniProt Q9UM73, L1196M); experiment: Off-chip mobility shift assay (Carna Biosciences), ALK L1196M; type: biochemical
T2 construct: purchased Carna Biosciences (Chuo-ku, Kobe, Japan)
Description: as §3

ALK mutant R1275Q = molecular target: T3, ALK mutant R1275Q (Homo sapiens, UniProt Q9UM73, R1275Q); experiment: Off-chip mobility shift assay (Carna Biosciences), ALK R1275Q; type: biochemical
T3 construct: purchased Carna Biosciences (Chuo-ku, Kobe, Japan)
Description: as §3

H2228 = experiment: Cell proliferation assay (MTS / BrdU), H2228; type: cell-based; settings: Homo sapiens, NCI-H2228; 72 hours, 2% FBS
Description: as §1, §2

ALK [1] = molecular target: T4, ALK (Homo sapiens, UniProt Q9UM73); experiment: Inhibition of ALK phosphorylation (sandwich ELISA, pY1604) in SU-DHL-1 cells; type: cell-based; design: NPM1 portion (fusion partner, nucleophosmin, P06748); host or cells: Karpas299; SU-DHL-1; the other entry of the earlier key: NPM1 (P06748, Nucleophosmin); settings: 1 hour, serum-free
Description: as §1
Target sequence in this assay (Q9UM73 with tags, fused parts or gaps): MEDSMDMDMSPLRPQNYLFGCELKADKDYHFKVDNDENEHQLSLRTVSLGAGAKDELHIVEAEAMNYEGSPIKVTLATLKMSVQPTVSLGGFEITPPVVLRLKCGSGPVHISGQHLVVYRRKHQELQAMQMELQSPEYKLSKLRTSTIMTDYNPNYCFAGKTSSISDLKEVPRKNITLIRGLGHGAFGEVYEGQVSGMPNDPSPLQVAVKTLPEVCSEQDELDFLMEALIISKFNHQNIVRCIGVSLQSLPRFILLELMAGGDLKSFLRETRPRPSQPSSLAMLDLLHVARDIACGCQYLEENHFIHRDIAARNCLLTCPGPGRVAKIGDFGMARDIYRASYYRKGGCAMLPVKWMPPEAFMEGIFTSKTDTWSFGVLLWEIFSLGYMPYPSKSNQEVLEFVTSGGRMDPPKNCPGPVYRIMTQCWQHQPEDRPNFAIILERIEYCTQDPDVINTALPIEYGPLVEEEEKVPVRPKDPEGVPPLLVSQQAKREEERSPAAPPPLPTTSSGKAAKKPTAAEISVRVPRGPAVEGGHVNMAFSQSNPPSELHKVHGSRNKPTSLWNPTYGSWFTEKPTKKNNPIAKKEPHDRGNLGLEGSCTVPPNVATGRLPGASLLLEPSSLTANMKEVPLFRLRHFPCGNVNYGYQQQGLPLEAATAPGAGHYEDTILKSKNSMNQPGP

EML4-ALK = molecular target: T5, EML4-ALK (Homo sapiens, UniProt Q9UM73); experiment: Off-chip mobility shift assay (Carna Biosciences), EML4-ALK; type: biochemical
T5 construct: purchased Carna Biosciences (Chuo-ku, Kobe, Japan); the other entry of the earlier key: EML4 (Q9HC35, Echinoderm microtubule-associated protein-like 4)
Description: as §3

[2] = system: lung cancer cell line H2228; experiment: H2228 xenograft studies in athymic mice; type: in vivo, athymic mice (nude/nud mouse); settings: for reduced the tumor size: 14 days oral dosing at 60 mg/kg (BID)
Text: Xenograft model was developed in athymic mice (nude/nud mouse) with lung cancer cell line H2228 purchased from the American Type Culture Collection Company (Manassas, Va., USA). In brief, H2228 cells (1×10^7) were implanted s.c. into the hind flank region of each mouse and allowed to grow to the designated size (c.a. 150-200 mm^3) before administration of the tested articles. The tested articles were given orally at various dose levels twice daily for 10-14 days. Tumor volume and body weight were measured during the experiments. Tumor regression values were determined using the standard approach.

ALK wild type = molecular target: T6, ALK wild type (Homo sapiens, UniProt Q9UM73); experiment: Off-chip mobility shift assay (Carna Biosciences), ALK wild type; type: biochemical
T6 construct: purchased Carna Biosciences (Chuo-ku, Kobe, Japan)
Description: as §3

SU-DHL-1 = experiment: Cell proliferation assay (MTS / BrdU), SU-DHL-1; type: cell-based; settings: Homo sapiens, 72 hours, 2% FBS
Description: as §1, §2

ALK mutant F1174L = molecular target: T7, ALK mutant F1174L (Homo sapiens, UniProt Q9UM73, F1174L); experiment: Off-chip mobility shift assay (Carna Biosciences), ALK F1174L; type: biochemical
T7 construct: purchased Carna Biosciences (Chuo-ku, Kobe, Japan)
Description: as §3

ALK [3] = molecular target: T4, ALK; experiment: Inhibition of ALK phosphorylation (sandwich ELISA, pY1604), cell line not given; type: cell-based; design: fused on or other part: Q9HC35 (Echinoderm microtubule-associated protein-like 4); settings: 1 hour, serum-free
Description: as §1
Target sequence in this assay (Q9UM73 1058-1620 limits assumed): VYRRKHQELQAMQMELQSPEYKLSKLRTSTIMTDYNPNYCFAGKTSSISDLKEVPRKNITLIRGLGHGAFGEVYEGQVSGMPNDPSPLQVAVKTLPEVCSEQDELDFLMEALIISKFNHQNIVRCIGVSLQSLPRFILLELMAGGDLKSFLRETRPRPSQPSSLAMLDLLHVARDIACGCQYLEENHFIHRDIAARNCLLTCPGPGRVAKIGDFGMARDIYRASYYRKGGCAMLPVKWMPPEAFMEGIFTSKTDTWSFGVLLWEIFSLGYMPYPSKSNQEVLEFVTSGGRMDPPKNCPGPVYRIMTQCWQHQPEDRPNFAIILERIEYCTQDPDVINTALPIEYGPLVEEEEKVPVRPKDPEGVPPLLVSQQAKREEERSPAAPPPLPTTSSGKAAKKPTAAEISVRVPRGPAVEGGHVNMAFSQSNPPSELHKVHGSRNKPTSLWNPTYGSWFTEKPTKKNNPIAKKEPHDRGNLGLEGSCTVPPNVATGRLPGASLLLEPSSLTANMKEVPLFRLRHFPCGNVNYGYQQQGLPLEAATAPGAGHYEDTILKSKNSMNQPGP

ALK [4] = molecular target: T4, ALK; experiment: Inhibition of ALK phosphorylation (sandwich ELISA, pY1604) in Karpas299 cells; type: cell-based; design: NPM1 portion (fusion partner, nucleophosmin, P06748); host or cells: Karpas299; SU-DHL-1; the other entry of the earlier key: NPM1 (P06748, Nucleophosmin); settings: 1 hour, serum-free
Description: as §1

cytochrome P450 3A4 = cytochrome P450 3A4 (Homo sapiens, UniProt P08684); settings: reported; causing clinical drug-drug interactions; cited from earlier work
[5] = footnote #: NPM1-ALK, read-out: IC50 ALK Kinase (# NPM1-ALK)
[6] = mobility shift, ATP 50 μM, read-out: IC50 NPM1-ALK
[7] = footnote #: L1196M, read-out: IC50 ALK Kinase (# mutant L1196M)
[8] = mobility shift, ATP 72 μM, read-out: IC50 ALK L1196M
[9] = footnote #: R1275Q, read-out: IC50 ALK Kinase (# mutant R1275Q)
[10] = mobility shift, ATP 100 μM, read-out: IC50 ALK R1275Q
[11] = footnote #: EML4-ALK, read-out: IC50 ALK Kinase (# EML4-ALK)
[12] = mobility shift, ATP 50 μM, read-out: IC50 EML4-ALK
[13] = footnote #: ALK wild type, read-out: IC50 ALK Kinase (# ALK wild type)
[14] = mobility shift, ATP 50 μM, read-out: IC50 ALK wild type
[15] = footnote #: F1174L, read-out: IC50 ALK Kinase (# mutant F1174L)
[16] = mobility shift, ATP 50 μM, read-out: IC50 ALK F1174L

T7 sequence (Q9UM73 19-1620 F1174L): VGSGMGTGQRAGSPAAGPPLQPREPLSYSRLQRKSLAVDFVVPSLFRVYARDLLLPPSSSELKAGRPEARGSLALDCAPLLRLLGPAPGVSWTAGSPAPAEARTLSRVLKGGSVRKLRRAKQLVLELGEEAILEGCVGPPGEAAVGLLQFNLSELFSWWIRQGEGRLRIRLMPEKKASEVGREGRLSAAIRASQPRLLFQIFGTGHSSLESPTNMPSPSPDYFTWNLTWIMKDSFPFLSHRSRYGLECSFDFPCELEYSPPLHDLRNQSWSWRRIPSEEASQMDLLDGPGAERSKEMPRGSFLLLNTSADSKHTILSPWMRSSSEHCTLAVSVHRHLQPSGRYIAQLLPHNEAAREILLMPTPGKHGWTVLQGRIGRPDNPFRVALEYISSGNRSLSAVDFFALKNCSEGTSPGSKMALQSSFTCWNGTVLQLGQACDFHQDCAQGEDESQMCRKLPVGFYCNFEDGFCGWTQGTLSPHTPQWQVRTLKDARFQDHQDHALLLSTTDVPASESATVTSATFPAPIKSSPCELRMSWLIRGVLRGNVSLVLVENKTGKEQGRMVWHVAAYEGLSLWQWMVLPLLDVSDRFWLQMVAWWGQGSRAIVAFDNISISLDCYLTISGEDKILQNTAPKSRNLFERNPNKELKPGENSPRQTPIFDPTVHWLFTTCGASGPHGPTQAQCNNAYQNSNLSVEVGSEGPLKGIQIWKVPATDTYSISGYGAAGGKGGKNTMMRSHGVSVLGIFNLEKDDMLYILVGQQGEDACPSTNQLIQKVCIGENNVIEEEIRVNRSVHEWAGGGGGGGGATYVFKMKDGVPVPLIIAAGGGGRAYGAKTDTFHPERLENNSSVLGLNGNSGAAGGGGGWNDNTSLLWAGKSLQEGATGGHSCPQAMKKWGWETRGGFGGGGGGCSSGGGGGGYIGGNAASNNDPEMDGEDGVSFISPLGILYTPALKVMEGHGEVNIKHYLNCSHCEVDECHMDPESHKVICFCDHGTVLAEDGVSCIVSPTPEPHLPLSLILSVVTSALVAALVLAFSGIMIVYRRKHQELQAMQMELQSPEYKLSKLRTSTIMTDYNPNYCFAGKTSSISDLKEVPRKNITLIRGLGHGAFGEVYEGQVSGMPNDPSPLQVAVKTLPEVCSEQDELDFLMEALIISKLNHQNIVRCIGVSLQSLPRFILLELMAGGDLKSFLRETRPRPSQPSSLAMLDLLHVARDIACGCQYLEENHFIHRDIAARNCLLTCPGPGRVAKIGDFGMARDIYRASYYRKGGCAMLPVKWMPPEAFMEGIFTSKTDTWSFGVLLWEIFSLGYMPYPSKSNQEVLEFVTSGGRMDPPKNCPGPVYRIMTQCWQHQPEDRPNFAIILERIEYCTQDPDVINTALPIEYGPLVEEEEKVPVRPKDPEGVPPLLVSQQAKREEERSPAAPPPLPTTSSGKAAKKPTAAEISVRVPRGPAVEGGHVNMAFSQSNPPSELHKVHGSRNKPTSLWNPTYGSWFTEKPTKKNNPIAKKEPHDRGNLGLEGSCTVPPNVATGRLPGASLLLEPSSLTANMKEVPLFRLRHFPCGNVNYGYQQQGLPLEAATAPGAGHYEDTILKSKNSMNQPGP
T3 sequence (Q9UM73 19-1620 R1275Q): as the sequence (Q9UM73 19-1620 F1174L) above, with L1156F, R1257Q counted along it
T2 sequence (Q9UM73 19-1620 L1196M): as the sequence (Q9UM73 19-1620 F1174L) above, with L1156F, L1178M counted along it
T6 sequence (Q9UM73 19-1620): as the sequence (Q9UM73 19-1620 F1174L) above, with L1156F counted along it
T5 sequence (Q9UM73 with tags, fused parts or gaps): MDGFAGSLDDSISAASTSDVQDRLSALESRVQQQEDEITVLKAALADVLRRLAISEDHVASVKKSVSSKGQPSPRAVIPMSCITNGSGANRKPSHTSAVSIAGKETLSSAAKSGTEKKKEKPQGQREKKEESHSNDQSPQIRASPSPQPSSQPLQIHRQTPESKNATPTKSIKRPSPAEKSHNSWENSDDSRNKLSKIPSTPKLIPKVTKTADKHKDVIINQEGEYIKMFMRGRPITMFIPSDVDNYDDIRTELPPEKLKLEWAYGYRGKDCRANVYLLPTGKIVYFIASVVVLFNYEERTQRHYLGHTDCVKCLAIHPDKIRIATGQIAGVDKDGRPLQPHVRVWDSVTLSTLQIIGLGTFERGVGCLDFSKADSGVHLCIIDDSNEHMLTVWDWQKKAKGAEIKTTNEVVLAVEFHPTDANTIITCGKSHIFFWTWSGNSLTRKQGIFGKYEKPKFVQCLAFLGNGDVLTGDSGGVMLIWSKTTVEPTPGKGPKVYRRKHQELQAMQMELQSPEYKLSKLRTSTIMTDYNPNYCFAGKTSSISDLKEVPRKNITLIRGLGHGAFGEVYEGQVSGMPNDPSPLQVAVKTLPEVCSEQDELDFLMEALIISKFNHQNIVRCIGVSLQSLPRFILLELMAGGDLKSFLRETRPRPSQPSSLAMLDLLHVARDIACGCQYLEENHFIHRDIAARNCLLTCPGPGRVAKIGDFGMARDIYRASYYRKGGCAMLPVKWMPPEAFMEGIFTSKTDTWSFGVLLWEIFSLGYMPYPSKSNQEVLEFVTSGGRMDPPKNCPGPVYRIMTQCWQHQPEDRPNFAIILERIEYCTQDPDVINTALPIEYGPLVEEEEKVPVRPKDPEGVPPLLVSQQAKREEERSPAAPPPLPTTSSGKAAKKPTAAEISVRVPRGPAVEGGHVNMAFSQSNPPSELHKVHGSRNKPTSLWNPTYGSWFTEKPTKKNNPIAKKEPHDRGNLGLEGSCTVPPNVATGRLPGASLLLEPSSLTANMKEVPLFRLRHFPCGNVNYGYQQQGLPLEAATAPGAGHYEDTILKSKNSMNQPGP
Sequence of cytochrome P450 3A4 (P08684 whole entry): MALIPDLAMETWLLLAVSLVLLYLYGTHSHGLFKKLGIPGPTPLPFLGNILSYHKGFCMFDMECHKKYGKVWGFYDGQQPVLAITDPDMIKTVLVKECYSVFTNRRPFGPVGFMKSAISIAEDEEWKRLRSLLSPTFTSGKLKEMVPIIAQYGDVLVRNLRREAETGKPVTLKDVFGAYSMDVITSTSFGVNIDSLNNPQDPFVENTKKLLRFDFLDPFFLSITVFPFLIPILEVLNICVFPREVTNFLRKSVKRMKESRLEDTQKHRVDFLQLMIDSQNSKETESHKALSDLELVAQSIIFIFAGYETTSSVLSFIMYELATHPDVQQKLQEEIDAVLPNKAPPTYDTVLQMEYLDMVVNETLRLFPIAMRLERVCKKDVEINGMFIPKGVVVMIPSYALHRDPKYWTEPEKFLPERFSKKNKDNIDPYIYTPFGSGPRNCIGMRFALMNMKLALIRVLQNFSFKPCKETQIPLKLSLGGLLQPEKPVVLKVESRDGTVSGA

IC50 (Karpas299)	IC50 (NPM1-ALK; [5])	IC50 (NPM1-ALK; [6])	IC50 (ALK mutant L1196M; [7])	IC50 (ALK mutant L1196M; [8])	IC50 (ALK mutant R1275Q; [9])	IC50 (ALK mutant R1275Q; [10])	IC50 (H2228)	IC50 (ALK [1])	IC50 (EML4-ALK; [11])	IC50 (EML4-ALK; [12])	IC50 (ALK wild type; [13])	IC50 (ALK wild type; [14])	IC50 (SU-DHL-1)	IC50 (ALK mutant F1174L; [15])	IC50 (ALK mutant F1174L; [16])	IC50 (ALK [3])	Compound	inhibition of tumor growth compared to the vehicle control ([2]; 20 mg/kg oral BID)	inhibition of tumor growth compared to the vehicle control ([2]; 60 mg/kg oral BID)	reduced the tumor size [2]	other results
< 100 nM	< 100 nM	< 50 nM	< 100 nM	< 50 nM	< 100 nM	< 50 nM	< 100 nM	< 50 nM	< 100 nM	< 50 nM	< 100 nM	< 50 nM	< 100 nM	< 100 nM	< 50 nM	< 50 nM	COc1cc(P(C)(C)=O)ccc1-c1cnc(N)c(O[C@H](C)c2c(Cl)ccc(F)c2Cl)c1 [Example 24, 3-[(1R)-1-(2,6-dichloro-3-fluoro-phenyl)ethoxy]-5-(4-dimethylphosphoryl-2-methoxy-phenyl)pyridin-2-amine]	79%	93%	approximately 80%	IC50 (ALK [4]): < 100 nM
< 100 nM	< 100 nM	< 50 nM	< 100 nM	< 50 nM	< 100 nM	< 50 nM	< 100 nM	< 50 nM	< 100 nM	< 50 nM	< 100 nM	< 50 nM	< 100 nM	< 100 nM	< 50 nM	< 50 nM	C[C@@H](Oc1cc(-c2ccc(P(C)(C)=O)cc2F)cnc1N)c1c(Cl)ccc(F)c1Cl [Example 25, 3-[(1R)-1-(2,6-dichloro-3-fluoro-phenyl)ethoxy]-5-(4-dimethylphosphoryl-2-fluoro-phenyl)pyridin-2-amine]	73%	93%	approximately 80%	inhibition of tumor growth compared to the vehicle control ([2]; 6 mg/kg oral BID): 46%; IC50 (ALK [4]): < 100 nM
–	–	–	–	–	–	–	–	–	–	–	–	–	–	–	–	–	C[C@@H](Oc1cc(-c2cnn(C3CCNCC3)c2)cnc1N)c1c(Cl)ccc(F)c1Cl [crizotinib]	–	–	–	cytochrome P450 3A4 inhibition (cytochrome P450 3A4): time-dependent cytochrome P450 3A4 inhibitor

From patent publication US8951993B2, “Phosphorus containing compounds as protein kinase inhibitors” (Jiangsu Hansoh Pharmaceutical Co., Ltd., priority 2011, dated 2015)
